Laboratory results published in PubChem BioAssay AID248 (DTP/NCI, 2004).
Values joined by “and” are separate entries in the source; they are usually repeats but may differ in a detail not shown here. Identical values can stand only once. Toxic doses and inconclusive results are not listed. Rule as the data show it: active = T/C of 150% or more; inactive = T/C below 125%.

Test system: L1210 leukemia ip in BDF1 mice, survival T/C
Assay: NCI In Vivo Anticancer Drug Screen. Data for tumor model L1210 Leukemia (intraperitoneal) in B6D2F1 (BDF1) mice
Settings: endpoint: mean survival time, higher = longer survival
In short: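 Mice bearing the transplanted tumor received compound or vehicle. Survival of the treated group was divided by that of the vehicle-treated control group to give the ratio.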

[1] = dose: 50.0 mg/kg/injection, schedule: Q01DX009 (ip), vehicle: saline
[2] = dose: 100.0 mg/kg/injection, schedule: Q01DX001 (ip), vehicle: saline
[3] = dose: 100.0 mg/kg/injection, schedule: Q01DX009 (ip), vehicle: saline
[4] = dose: 200.0 mg/kg/injection, schedule: Q01DX001 (ip), vehicle: saline
[5] = dose: 100.0 mg/kg/injection, schedule: Q04DX002 (ip), vehicle: saline with Tween-80
[6] = dose: 200.0 mg/kg/injection, schedule: Q04DX002 (ip), vehicle: saline with Tween-80
[7] = dose: 400.0 mg/kg/injection, schedule: Q04DX002 (ip), vehicle: saline with Tween-80
[8] = dose: 50.0 mg/kg/injection, schedule: Q01DX009 (ip), vehicle: saline with Tween-80
[9] = dose: 100.0 mg/kg/injection, schedule: Q01DX009 (ip), vehicle: saline with Tween-80
[10] = dose: 200.0 mg/kg/injection, schedule: Q01DX009 (ip), vehicle: saline with Tween-80
[11] = dose: 400.0 mg/kg/injection, schedule: Q01DX001 (ip), vehicle: saline
[12] = dose: 100.0 mg/kg/injection, schedule: Q01DX009 (ip), vehicle: Klucel (hydroxypropylcellulose) (HPC)
[13] = dose: 200.0 mg/kg/injection, schedule: Q01DX009 (ip), vehicle: Klucel (hydroxypropylcellulose) (HPC)
[14] = dose: 50.0 mg/kg/injection, schedule: Q01DX009 (ip), vehicle: Klucel (hydroxypropylcellulose) (HPC)
[15] = dose: 100.0 mg/kg/injection, schedule: Q04DX003 (ip), vehicle: saline
[16] = dose: 200.0 mg/kg/injection, schedule: Q04DX003 (ip), vehicle: saline

Measured: T/C

CC(C)(C)N1CC1
inactive: dose: 25.0 mg/kg/injection, schedule: Q04DX002 (ip), vehicle: saline 103 % of control | [1] 101 % of control | dose: 50.0 mg/kg/injection, schedule: Q04DX002 (ip), vehicle: saline 93 % of control | [2] 106 % of control | [3] 111 % of control | dose: 100.0 mg/kg/injection, schedule: Q04DX002 (ip), vehicle: saline 93 % of control | [4] 106 % of control | dose: 200.0 mg/kg/injection, schedule: Q01DX009 (ip), vehicle: saline 103 % of control

O=[N+]([O-])c1ccc(NCc2ccccc2)nc1
inactive: [5] 91 % of control | dose: 111.0 mg/kg/injection, schedule: Q01DX Z (ip), vehicle: carboxymethylcellulose (CMC) 111 % of control | dose: 166.7 mg/kg/injection, schedule: Q01DX Z (ip), vehicle: carboxymethylcellulose (CMC) 98 % of control | [6] 97 % of control | dose: 250.0 mg/kg/injection, schedule: Q01DX Z (ip), vehicle: carboxymethylcellulose (CMC) 101 % of control | dose: 375.0 mg/kg/injection, schedule: Q01DX Z (ip), vehicle: carboxymethylcellulose (CMC) 100 % of control | [7] 103 % of control

O=C(CC(=O)c1ccccc1)c1ccccc1
inactive: [5] 97 % of control | [6] 102 % of control | [7] 94 % of control

O=C(O)/C=C/Sc1ccc(Cl)cc1
inactive: [8] 94 % of control | [9] 94 % of control | [5] 95 % of control | [10] 94 % of control | [6] 92 % of control

O=Cc1cc(=O)[nH]c(=O)[nH]1
inactive: dose: 50.0 mg/kg/injection, schedule: Q01DX001 (ip), vehicle: saline 109 % of control | [2] 109 % of control | [4] 105 % of control | [11] 97 % of control

C[P+](C)(c1ccccc1)c1ccccc1
inactive: dose: 3.12 mg/kg/injection, schedule: Q01DX009 (ip), vehicle: saline with Tween-80 108 % of control | dose: 6.25 mg/kg/injection, schedule: Q01DX009 (ip), vehicle: saline with Tween-80 101 % of control | dose: 12.5 mg/kg/injection, schedule: Q01DX009 (ip), vehicle: saline with Tween-80 97 % of control | dose: 12.5 mg/kg/injection, schedule: Q04DX003 (ip), vehicle: saline with Tween-80 102 % of control

CCOC(=O)C(C)Cl (configuration not stated)
inactive: [12] 97 % of control | dose: 100.0 mg/kg/injection, schedule: Q04DX003 (ip), vehicle: Klucel (hydroxypropylcellulose) (HPC) 103 % of control | [13] 96 % of control | dose: 200.0 mg/kg/injection, schedule: Q04DX003 (ip), vehicle: Klucel (hydroxypropylcellulose) (HPC) 103 % of control | dose: 400.0 mg/kg/injection, schedule: Q04DX003 (ip), vehicle: Klucel (hydroxypropylcellulose) (HPC) 103 % of control

CCNc1nc(C)c2nc(C(=O)NCc3ccccc3)c(=O)n(CC)c2n1
inactive: dose: 100.0 mg/kg/injection, schedule: Q01DX001 (ip), vehicle: Klucel (hydroxypropylcellulose) (HPC) 94 % of control | dose: 200.0 mg/kg/injection, schedule: Q01DX001 (ip), vehicle: Klucel (hydroxypropylcellulose) (HPC) 94 % of control

CN(C)C(=S)N=Nc1c(O)[nH]c2ccccc12
inactive: dose: 75.0 mg/kg/injection, schedule: Q01DX001 (ip), vehicle: other 103 % of control | dose: 150.0 mg/kg/injection, schedule: Q01DX001 (ip), vehicle: other 96 % of control | dose: 300.0 mg/kg/injection, schedule: Q01DX001 (ip), vehicle: other 105 % of control

CC(=O)Cc1cc(=O)[nH]c(=S)[nH]1
inactive: [8] 95 % of control | [9] 92 % of control | [10] 92 % of control

CC(C)(C)c1ccc(SC/C=C/COc2ccccc2)cc1
inactive: dose: 75.0 mg/kg/injection, schedule: Q01DX009 (ip), vehicle: Klucel (hydroxypropylcellulose) (HPC) 101 % of control | dose: 150.0 mg/kg/injection, schedule: Q01DX009 (ip), vehicle: Klucel (hydroxypropylcellulose) (HPC) 90 % of control | dose: 300.0 mg/kg/injection, schedule: Q01DX009 (ip), vehicle: Klucel (hydroxypropylcellulose) (HPC) 91 % of control

O=C(CCc1ccc(O)cc1)N/N=C/c1cc(Br)ccc1O
inactive: [9] 97 % of control | dose: 100.0 mg/kg/injection, schedule: Q04DX003 (ip), vehicle: saline with Tween-80 95 % of control | [10] 92 % of control | dose: 200.0 mg/kg/injection, schedule: Q04DX003 (ip), vehicle: saline with Tween-80 96 % of control | dose: 400.0 mg/kg/injection, schedule: Q01DX009 (ip), vehicle: saline with Tween-80 92 % of control | dose: 400.0 mg/kg/injection, schedule: Q04DX003 (ip), vehicle: saline with Tween-80 90 % of control

NC(=O)c1cc(Br)ccc1O
inactive: [14] 89 % of control | [12] 92 % of control | [13] 95 % of control

CNC(=S)N/N=C/C(CO)=N\NC(=S)NC
inactive: dose: 50.0 mg/kg/injection, schedule: Q01DX001 (ip), vehicle: carboxymethylcellulose (CMC) 101 % of control | dose: 100.0 mg/kg/injection, schedule: Q01DX001 (ip), vehicle: carboxymethylcellulose (CMC) 103 % of control | dose: 200.0 mg/kg/injection, schedule: Q01DX001 (ip), vehicle: carboxymethylcellulose (CMC) 112 % of control | dose: 400.0 mg/kg/injection, schedule: Q01DX001 (ip), vehicle: carboxymethylcellulose (CMC) 97 % of control

C/C=C\C=N\N(C)C
inactive: [1] 110 % of control | [3] 106 % of control | [15] 102 % of control | [16] 97 % of control

CCOc1ccc2nc(N)sc2c1
inactive: [14] 94 % of control | [12] 110 % of control | [15] 99 % of control | [13] 111 % of control | [16] 89 % of control

CCCCCCCCCCCCCC(=O)OCC(OC(=O)CCCCCCCCCCCCC)C(OC(=O)CCCCCCCCCCCCC)C(OC(=O)CCCCCCCCCCCCC)C(C=O)OC(=O)CCCCCCCCCCCCC (configuration not stated)
inactive: dose: 100.0 mg/kg/injection, schedule: Q01DX001 (ip), vehicle: other 90 % of control | dose: 200.0 mg/kg/injection, schedule: Q01DX001 (ip), vehicle: other 97 % of control | dose: 400.0 mg/kg/injection, schedule: Q01DX001 (ip), vehicle: other 92 % of control

O=C1c2ccccc2C(=O)N1C/C=C/CN1C(=O)c2ccccc2C1=O
inactive: [2] 95 % of control | [15] 101 % of control | [4] 98 % of control | [16] 104 % of control | [11] 91 % of control | dose: 400.0 mg/kg/injection, schedule: Q04DX003 (ip), vehicle: saline 102 % of control

O=C(CNC(=O)OCc1ccccc1)NCCCCCCCCCCNC(=O)CNC(=O)OCc1ccccc1
inactive: dose: 10.0 mg/kg/injection, schedule: Q01DX Z (ip), vehicle: saline 104 % of control | dose: 30.0 mg/kg/injection, schedule: Q01DX Z (ip), vehicle: saline 90 % of control | dose: 100.0 mg/kg/injection, schedule: Q01DX Z (ip), vehicle: saline 90 % of control | dose: 300.0 mg/kg/injection, schedule: Q01DX Z (ip), vehicle: saline 95 % of control

C=COC(=O)CCCCCCC (tested in a mixture with another compound)
inactive: dose: 4.0 mg/kg/injection, schedule: Q01DX001 (ip), vehicle: acetone 89 % of control | dose: 5.0 mg/kg/injection, schedule: Q01DX001 (ip), vehicle: acetone 94 % of control | dose: 5.0 mg/kg/injection, schedule: Q01DX001 (ip), vehicle: saline 97 % of control | dose: 6.0 mg/kg/injection, schedule: Q01DX001 (ip), vehicle: acetone 106 % of control | dose: 10.0 mg/kg/injection, schedule: Q01DX001 (ip), vehicle: acetone 93 % of control | dose: 10.0 mg/kg/injection, schedule: Q01DX001 (ip), vehicle: saline 87 % of control | dose: 20.0 mg/kg/injection, schedule: Q01DX001 (ip), vehicle: acetone 92 % of control | dose: 20.0 mg/kg/injection, schedule: Q01DX001 (ip), vehicle: saline 101 % of control | dose: 40.0 mg/kg/injection, schedule: Q01DX001 (ip), vehicle: acetone 95 % of control | dose: 40.0 mg/kg/injection, schedule: Q01DX001 (ip), vehicle: saline 97 % of control | dose: 80.0 mg/kg/injection, schedule: Q01DX001 (ip), vehicle: acetone 90 % of control | dose: 80.0 mg/kg/injection, schedule: Q01DX001 (ip), vehicle: saline 102 % of control | [2] 110 % of control and 104 % of control and 105 % of control | [4] 94 % of control | [11] 100 % of control and 101 % of control
